# Reference: patent US9428520B2, “Daphne genkwa extracts, and pharmaceutical composition containing fractions of the extracts or compounds separated from the extracts as active ingredients for preventing or treating atopic dermatitis” (priority 2011, dated 2016)
# Columns and labels:
# NK92 cells = assay: RT-PCR of cytokine mRNA levels in NK92 cells; type: cell-based, human; conditions: 2 ng, FIG. 2A
# Description: (§1) Human cell lines (A549, NK92, muDC, Jurkat) were cultured in a 37° C., 5% CO2 humidified incubator.
# Particularly, NK92 (human NK lymphoma), the IL-2 dependent NK cell line, was purchased from ATCC (American Type Culture Collection). The NK92 cell line was maintained in α-MEM (Life Technologies, Karlsruhe, Germany) supplemented with 20% FCS (HyClone, Logan, Utah), 2 mM […], 100 μg/ml penicillin, 100 μg/ml streptomycin (Life Technologies) and 100 U/ml IL-2 (Chiron, Emeryville, Calif.).
# (§2) RT-PCR was performed to investigate the changes of mRNA levels in relation to the inducement of IFN-γ, IL-2, and IL-12 in A549, NK92, muDC, and Jurkat cells cultured in <Example 2>. These cells were cultured in the presence of 2 ng of genekwadapnin or yuanhuacine for 12 hours.
# Phase II RT-PCR was performed with oligo-dT primer, reverse transcriptase, specific primer set, and Taq polymerase (Takara, Shiga, Japan). Total RNA was isolated according to the standard protocol. cDNA was synthesized by using Accusript High Fidelity 1st Strand cDNA Synthesis Kit (Stratagene) according to the manufacturer's instruction. 1 μl of the synthesized cDNA was used for PCR with 20 μl of reaction mixture containing 0.5 U ExTaq DNA polymerase, 1× buffer, 1 mM dNTP mix (Takara) and specific primer set. PCR amplification was performed using GeneAmp PCR system 2700 (Applied Biosystems, Foster city, CA, USA) as follows: predenaturation at 94° C. for 5 minutes, denaturation at 94° C. for 45 seconds, annealing at 56° C. for 45 seconds, polymerization at 72° C. for 1 minute, 25˜40 cycles from denaturation to polymerization, and final extension at 72° C. for 7 minutes. PCR primers shown in [Table 1] were designed by using Primer 3 program, which were purchased from Bioneer (Daejeon, Korea). […]
# (§3) The PCR product was electrophoresed on 1.5% agarose gel, which was stained with ethidium bromide (EtBr) and then visualized by using Gel Doc 2000 UV trans-illuminator (Bio-Rad Laboratories, Hercules, Calif., […]). Analysis was performed with Quantity One software (Bio-Rad Laboratories).
# A549 cells = assay: RT-PCR of cytokine mRNA levels in A549 cells; type: cell-based, human; conditions: 2 ng, FIG. 2A
# Description: as §1, §2
# Phase II RT-PCR was performed with oligo-dT primer, reverse transcriptase, specific primer set, and Taq polymerase (Takara, Shiga, Japan). Total RNA was isolated according to the standard protocol. cDNA was synthesized by using Accusript High Fidelity 1st Strand cDNA Synthesis Kit (Stratagene) according to the manufacturer's instruction. 1 μl of the synthesized cDNA was used for PCR with 20 μl of reaction mixture containing 0.5 U ExTaq DNA polymerase, 1× buffer, 1 mM dNTP mix (Takara) and specific primer set. PCR amplification was performed using GeneAmp PCR system 2700 (Applied Biosystems, Foster city, CA, USA) as follows: predenaturation at 94° C. for 5 minutes, denaturation at 94° C. for 45 seconds, annealing at 56° C. for 45 seconds, polymerization at 72° C. for 1 minute, 25˜40 cycles from denaturation to polymerization, and final extension at 72° C. for 7 minutes. PCR primers shown in [Table 1] were designed by using Primer 3 program, which were purchased from Bioneer (Daejeon, Korea). At this time, GAPDH was used as the internal control.
# as §3
# NC mouse = assay: Atopy treatment effect in NC mouse model; type: in vivo; conditions: local spreading on skin, FIG. 3
# Excerpt: NC mouse is the mouse showing typical atopy symptom when it is raised in the conventional space. Genekwadapnin or yuanhuacine was spread locally on NC mouse starting to show atopy symptom, followed by observation of changes of atopy symptom.
# Balb/C mouse = assay: Atopy treatment effect in DNCB atopy induced mouse model; type: in vivo; conditions: score 10˜13 group with severe atopic symptoms, FIG. 4
# Description: DNCB, one of allergens, was spread on the shaved skin of a normal Balb/C mouse to induce atopy intentionally. Atopy symptoms varied from the dose of DNCB and the treatment period, which were classified into different score groups (score 4˜8 group and score 10˜13 group). In the mouse group (score 4˜8 group) which was treated with a lower dose of DNCB, atopic skin was recovered to normal skin within 24 hours from the treatment of genekwadapnin or yuanhuacine. […] At that time, the test was performed in duplicate with 10 mice each.
# atopy patients = assay: Atopy treatment effect in atopy patient; type: in vivo, human; conditions: 5 ug/ml spread on the skin, FIG. 5
# Description: After spreading genekwadapnin or yuanhuacine on the skin of atopy patients, atopy treatment effect of the compound was confirmed.
# Particularly, 5 ug/ml of genekwadapnin or yuanhuacine was spread on the skin of atopy patients, followed by observation for 5˜20 days. The treatment effect was confirmed by Medream Skin Clinic (Goejeong-dong, Seogu, Daejeon, Korea).
# PKC isotype = assay: Intracellular mechanism: phosphorylation level of PKC isotype in NK92 cells (western blot); type: cell-based, human; conditions: 500 ng/ml, 12 hours, FIG. 6
# Description: To investigate the intracellular mechanism of genekwadapnin or yuanhuacine, the NK92 cells cultured in <Example 2> were treated with genekwadapnin or yuanhuacine at the concentration of 500 ng/ml. 12 hours later, phosphorylation level of PKC isotype was investigated by using antibodies. The quantity of protein used herein was confirmed by using GAPDH.
# Particularly, the cells treated with genekwadapnin or yuanhuacine were dissolved in ice by using cold SDS-lysis buffer [(50 mM HEPES, 150 mM NaCl, 0.2 mM EDTA, 0.5% NP-40, 0.1% SDS, 1 mM Na3VO4, 10 mM NaF, and complete Protein Inhibitor Cocktail (Roche)] for 30 minutes. The dissolved cell solution was spinned at the speed of 13,000 rpm for 30 minutes in a high-speed rotating machine to precipitate insoluble part and then water soluble part was separated. The separated cell aqueous solution was quantified, followed by electrophoresis using 10˜20% SDS-PAGE. Cellular protein separated on the gel was transcribed onto PVDF membrane (Millipore, Billerica, Mass., USA) at 100 V for 2 hours. To confirm PCK isotype phosphorylated in the cells, poly rabbit anti-PKD1, -phosphoPKD1 (Ser916), -phosphoPKDl (Ser744/748), -phosphoPKCα/βII, -phosphoPKCδ, -phosphoPKCθ, and -phosphoPKCζ/λ IgG (Cell signaling Technology, USA) (1:1000) were used as primary antibodies. As a secondary antibody, horseradish peroxidase peroxidase-conjugated goat anti-rabbit IgG (Santa Cruz Biotechnology, USA) (1:3000) was treated at room temperature for 60 minutes. To confirm the equal amount of cellular protein, poly rabbit anti-GAPDH IgG (Santa Cruz Biotechnology, Pasadena, Calif., USA) was used.
# [1] = NK92 cells (printed NR92), 12 hours after treatment
smiles,measurement,setting,value
C=C(C)[C@@]12OC3(/C=C/C=C/CCCCC)O[C@@H]1[C@@H]1[C@@H]4O[C@]4(CO)[C@@H](O)[C@]4(O)C(=O)C(C)=C[C@H]4[C@@]1(O3)[C@H](C)[C@H]2OC(=O)c1ccccc1 [yuanhuacine],"transcript of type II cytokine, IL-4",NK92 cells; [1],not induced
same,"transcripts of Type I cytokines, IFN-γ, IL-2, and IL-12",NK92 cells; [1],significantly increased
same,transcripts of IL-15 and IL-18,"NK92 cells; NK92 cells, 12 hours",not controlled
same,"transcript of type II cytokine, IL-4",A549 cells; 12 hours after treatment,not induced
same,"transcripts of Type I cytokines, IFN-γ, IL-2, and IL-12",A549 cells; 12 hours after treatment,significantly increased
same,transcripts of IL-15 and IL-18,A549 cells; 12 hours,not controlled
same,atopy symptom on the back where the compound was spread,NC mouse,significantly reduced
same,"skin biopsy: distribution of inflammatory cells, phenotype of the treated area",NC mouse,almost normal phenotype
same,speed of recovery versus the control group,Balb/C mouse,at least two times faster
same,time until atopic skin was recovered to normal,atopy patients; minor symptoms,5 days
same,time until atopic skin was recovered to normal,atopy patients; severe symptoms,20 days
same,PKD1 level,PKC isotype,not changed
same,phosphorylation of other types of PKC isotype,PKC isotype,not phosphorylated
same,"phosphorylation of serin residues (744th/748th, and 916th sites of PKD1 protein)",PKC isotype,confirmed
